Reference: patent publication US7071220B2, “N-substituted benzothiophenesulfonamide derivatives” (Toa Eiyo Ltd., priority 2000, dated 2006)
Residue numbers refer to the chain shown, from its start. Read-outs that look alike come from different tables or passages of the source.

How the values were obtained:
[1] = target: T1, Chymotrypsin (Bos taurus, UniProt P00766); assay: Measurement of chymotrypsin inhibitory activity (Suc-Ala-Ala-Pro-Phe-pNA); format: biochemical; conditions: Chymotrypsin Type I-S from bovine pancreas; 30 minutes at 37° C.
T1 construct: Chymotrypsin Type I-S derived from bovine pancreas; purchased SIGMA Type I-S; host or cells: bovine pancreas
Experimental: (§1) Measurement of Cathepsin G Inhibitory Activity and Chymotrypsin Inhibitory Activity
(§2) Each activity of cathepsin G or chymotrypsin was measured by determining the amount of free p-nitroaniline quantitatively using a synthetic substrate that is colorless and yields colored product upon hydrolysis, by means of a spectrophotometer. Chymotrypsin Type I-S derived from bovine pancreas was purchased from SIGMA. As cathepsin G, the product of Elastin Products Company, Inc. derived from human purulent sputum was used. Suc-Ala-Ala-Pro-Phe-pNA (manufactured by SIGMA) was used as the synthetic substrate. An inhibitory effect of a compound on each enzyme was determined by the following method.
(§3) Each test compound (5 μmol) was weighed in a test tube and dissolved into 2 mL of DMSO. […] Then, 200 μL of 1 mmol/L substrate solution was added to initiate en enzymatic reaction under a temperature of 37° C.
(§4) Based on each inhibitory ratio, IC50 value was calculated.

[2] = target: T2, Cathepsin G (Homo sapiens, UniProt P08311); assay: Measurement of cathepsin G inhibitory activity (Suc-Ala-Ala-Pro-Phe-pNA); format: biochemical; conditions: cathepsin G from human purulent sputum; 60 minutes at 37° C.
T2 construct: the product of Elastin Products Company, Inc. derived from human purulent sputum was used; purchased Elastin Products Company, Inc; host or cells: human purulent sputum
T2 sequence (P08311 21-244): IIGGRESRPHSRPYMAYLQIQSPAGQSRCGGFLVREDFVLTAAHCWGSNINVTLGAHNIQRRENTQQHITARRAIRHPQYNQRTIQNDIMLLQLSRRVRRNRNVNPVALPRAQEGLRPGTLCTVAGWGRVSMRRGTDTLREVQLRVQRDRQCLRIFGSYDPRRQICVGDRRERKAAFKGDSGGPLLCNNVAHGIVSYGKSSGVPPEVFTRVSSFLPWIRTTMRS
Experimental: as §1, §2, §3, §4

[3] = test system: rat cecum-scraped adhesion model; assay: Investigation in rat cecum-scraped adhesion model; format: in vivo; conditions: 2 mL PBS solution 10^−5 mol/L intraperitoneally; 1 week after operation; control 63.6%
Experimental: Investigation in Rat Cecum-scraped Adhesion Model
Six-week-old SD rats were subjected to midline incision at lower abdominal region under pentobarbital anesthetization (70 mg/kg, intramuscular injection), and the cecum was taken out of the incised part. Two parts of serous membrane of the cecum (about 2 cm^2 each) were rubbed with a cotton swab a hundred times until petechial hemorrhage occurs, followed by dropwise addition of 100 μL of ethanol. The cecum was again set in abdominal cavity, and then, 2 mL of a phosphate buffered saline (hereinafter, abbreviated as PBS, pH 7.4) solution of a test compound (Compound 24 or 70) was added dropwise intraperitoneally, and then the incised part was sutured. The concentration of each test compound solution was 10^−5 mol/L in a control group, PBS alone was added dropwise, followed by a similar treatment. Each group had 11 or 12 rats. After 1 week from the operation, the animals were slaughtered, the abdominal part was re-incised and an adhesion state of the cecum was evaluated according to adhesion scores using the adhesion intensity and adhesion area as indexes. The score values were determined according to the following 5-grade scores. In this connection, adhered region (%) was determined as percentage of total area of the adhered parts relative to the area of the rubbed regions. […]

[4] = target: T3, Simian chymase (Macaca mulatta, UniProt F6SAJ2); assay: Measurement of inhibitory activity of simian chymase (Ang I substrate, His-Leu/OPT fluorescence); format: biochemical, rhesus monkey
T3 sequence (F6SAJ2 22-247 limits assumed): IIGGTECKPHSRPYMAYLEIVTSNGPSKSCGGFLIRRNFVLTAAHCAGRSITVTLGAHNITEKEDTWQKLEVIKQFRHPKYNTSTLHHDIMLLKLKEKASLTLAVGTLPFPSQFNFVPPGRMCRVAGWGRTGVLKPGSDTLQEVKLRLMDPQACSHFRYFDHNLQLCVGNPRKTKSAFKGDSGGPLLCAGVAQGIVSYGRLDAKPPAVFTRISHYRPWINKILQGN

[5] = test system: rat monocrotaline-induced pulmonary hypertension model; assay: Test in rat monocrotaline-induced pulmonary hypertension model; format: in vivo
Experimental: Test in Rat Monocrotaline-Induced Pulmonary Hypertension Model
Into 1.2 mL of 1 mol/L hydrochloric acid was dissolved 200 mg of monocrotaline, followed by addition of 5 mL of distilled water. The solution was neutralized with 0.5 mol/L sodium hydroxide, and further diluted with distilled water so as to be 10 mL (20 mg/mL). Moreover, a solution containing the solvent alone without monocrotaline was prepared as Solvent A. A test compound was suspended into olive oil (25 mg/mL). Furthermore, a solution containing no test compound but the solvent alone was prepared as Solvent B.
Monocrotaline (60 mg/kg-body weight) was administrated subcutaneously at the posterior region of neck of five 5-week-old SD male rats. From 3 days before monocrotaline administration to 20 days after the administration, a test compound was administered intraperitoneally twice a day at a dose of 50 mg/kg-body weight. On the next day of the final administration of the test compound, the rats were fixed supinely under anesthetization with intraperitoneal administration of sodium pentobarbital. And then blood pressure was measured with cannula inserted from left carotid artery and systolic pressure at right ventricle was measured with cannula inserted from right […] and introduced into right ventricle, via a pressure transducer by means of a pressure-strain gauge. After slaughter of the animals, the heart was removed and weight of right ventricle, weight of left ventricle and septum, and diameter and medial thickness of pulmonary artery having a diameter within a range of 50 to 150 μm were measured. Moreover, from these measured values, a weight ratio of right ventricle/(left ventricle+septum) and medial thickening ratio {(medial thickness/outer diameter of the blood vessel)×100} were determined. In this regard, a group wherein the rats to which monocrotaline was administered was treated with Solvent B alone in an amount of 2 mL/kg-body weight in the same administration schedule as above was named “Solvent-administered group”. In addition, a group wherein the rats to which Solvent A was administered in an amount of 3 mL/kg-body weight was treated with Solvent B in an amount of 2 mL/kg-body weight was named “Monocrotaline-untreated group”.

[6] = target: T4, Human chymase (Homo sapiens, UniProt P23946); assay: Measurement of inhibitory activity of human chymase (Ang I substrate, His-Leu/OPT fluorescence)
T4 sequence (P23946 22-247): T3 sequence (F6SAJ2 22-247 limits assumed) with S29F, K63E, Y159D, L201S, K221Q, G225A
Experimental: That is, the activity was measured by reacting free His-Leu formed together with Ang II with o-phthalaldehyde (hereinafter, abbreviated as OPT) to prepare a fluorescent derivative and determining the amount quantitatively by means of a fluorophotometer.
First, 3.6 μmol of each test compound was weighed in a test tube and was dissolved into 3 mL of DMSO. The DMSO solution was diluted 1000-fold with 20 mmol/L Tris-hydrochloric acid buffer solution (pH 8.0) containing 0.01% Triton X-100 and 0.5 mol/L potassium chloride to prepare 1.2×10^−6 mol/L solution, which was successively diluted with the buffer solution to prepare test sample solutions having concentrations of 1.2×10^−6 mol/L to 1.2×10^−9 mol/L. To 500 μL of the test sample solution of each concentration or buffer solution was added 50 μL of an enzyme solution, followed by 10 minutes of pre-incubation at 37° C. Then, 50 μL of 0.1 mmol/L Ang I solution was added to initiate a reaction. Human angiotensin I (manufactured by SIGMA) was employed as Ang I. The enzyme solution to be used for the reaction was adjusted so as to hydrolyze about 60% of substrate under the conditions, and the reaction wherein a buffer solution containing no enzyme was carried out as a blind test. […] Thereafter, the reaction mixture was centrifuged at 4° C. at 3,000 rpm for 10 minutes and 2 mL of 2 mol/L sodium hydroxide and 1 mL of methanol were added to 1 mL of the resulting supernatant. […] The measurement was repeated twice for each sample and blind test. The fluorescence intensity obtained by subtracting the average value at blind test from the average value thereof was determined as chymase activity.
In this regard, an enzymatic reaction using a buffer solution instead of the test sample solution was carried out as a control, and inhibitory ratio of chymase activity was determined as percentage by dividing the difference of subtraction of the activity at the addition of the test compound from the chymase activity at the control by the chymase activity at the control.

[7] = Stability in rat plasma; format: in vitro ADME; conditions: 10 μg/mL, 37° C., 60 minutes, HPLC
Experimental: Stability of the compounds of the invention in rat plasma was investigated.
Male SD rats (7-week-old) were anesthetized with ether under over-night fasting conditions and, after an abdominal part was incised, blood was collected from aorta abdominalis using a heparinized disposable plastic syringe. The blood was centrifuged under cooling to collect a supernatant plasma. The collected plasma was stored under freezing at −30° C. and was melted before use. After a test compound was dissolved in DMSO, the solution was added to 200 μL of the plasma so as to be 10 μg/mL, followed by incubation at 37° C. After 60 minutes, the mixture was acidified by adding 200 μL of 0.1 mol/L hydrochloric acid, and then extracted twice with 2 mL of ethyl acetate. The resulting organic layer was evaporated to dryness under a nitrogen gas flow and the residue was dissolved into 200 μL of acetonitrile to prepare a sample solution. On the other hand, the test compound was dissolved into 1% acetonitrile solution of DMSO so as to be 10 μg/mL as a control solution. The sample solution and control solution was investigated by high performance liquid chromatography (hereinafter, abbreviated as HPLC). Residual ratio (%) was determined as percentage by dividing the peak area of the sample solution by the peak area of the control solution.
Column: Waters Nova Pack C18 (inner diameter: 3.9 mm, length: 150 mm)
Mobile phase A: acetonitrile/water=10/90
Mobile phase B: acetonitrile/methanol=50/50
Eluent: Mobile phase A-mobile phase B (100/0 to 0/100, linear gradient, 50 minutes)
Amount of injection: 50 μL

[8] = test system: hamster adhesion model; assay: Investigation in hamster adhesion model; format: in vivo; conditions: 1 mL saline solution 10^−4 mol/L intraperitoneally; 4 weeks after operation; 5-grade score 0-4; control 2.0; p<0.05
Experimental: Investigation in Hamster Adhesion Model
Five-week-old female hamster (10 hamsters per each group) was anesthetized by administering intraperitoneally pentobarbital sodium (50 mg/kg) and, after midline incision at abdominal region, the uterus was rubbed with a cotton swab. Thereafter, 1 mL of saline solution of a test compound (Compound 24: 10^−4 mol/L) was added dropwise intraperitoneally, and then the incised part was sutured. On the other hand, as a control, saline alone was added dropwise, followed by a similar treatment.
After 4 weeks from the operation, the animals were slaughtered, the abdominal part was exposed and adhesion was investigated. The adhesion was judged using the following 5-grade scoring system and the data were analyzed according to Mann-Whitney U test.
(§5) 1: Very weak adhesion (film-like adhesion easily releasable)
(§6) 2: Limited adhesion (strong adhesion difficult to release at only one point)
(§7) 3: Wide-range adhesion (strong adhesion difficult to release at several points)
(§8) 4: Very strong adhesion (very strong adhesion impossible to release)

[9] = test system: canine eye postoperative adhesion model; assay: Investigation in canine eye postoperative adhesion model; format: in vivo, beagle dog; conditions: sponge with saline solution 10^−4 mol/L for 3 minutes; 7 days after operation; 5-grade score 0-4; control 3.67; p<0.05
Experimental: Investigation in Canine Eye Postoperative Adhesion Model
A beagle dog was anesthetized and each conjunctiva of both eyes thereof was peeled in a size of 10 mm×5 mm under a stereomicroscope. At that time, Tenon was left at conjunctival side and was not left at scleral side. After a sponge immersed in a saline solution of a test compound (Compound 70) was placed at the incised part for 3 minutes, the incised part was put in one stitch with 10-0 nylon thread. The concentration of the test compound solution was 10^−4 mol/L and a saline was used in a control group (6 dogs per each group).
After 7 days from the operation, the animals were slaughtered, the eyeballs were taken out and adhesion was investigated. After the thread used at the stitching in the model preparation was cut, evaluation was carried out by pulling the conjunctiva part with tweezers and scoring the adhesion state. The score values were determined according to the following 5-grade scores, and Mann-Whitney U test was used for analyzing the data.
as §5, §6, §7, §8

[10] = monocrotaline-treated SD male rats, 50 mg/kg intraperitoneally twice a day, 3 days before to 20 days after monocrotaline
[11] = chymase from heart of rhesus monkey, 120 minutes at 37° C., read-out: Simian chymase IC50 value

IC50 [1]	IC50 [2]	IC50 [4, 11]	Residual ratio in rat plasma [7]	melting point	IC50 [6]	SMILES	total percentage of scores 3 and 4 showing severe adhesions [3]	IC50 [4]	Medial thickening ratio ([5]; (medial thickness/outer diameter of the blood vessel)×100, pulmonary artery 50 to 150 μm, 50 mg/kg intraperitoneally twice a day)	thickening of medial muscular layer (increase of medial thickening ratio) ([5]; monocrotaline-induced pulmonary hypertension, result in words)	Weight ratio of right ventricle/(left ventricle + septum) ([5]; monocrotaline-treated SD male rats, 50 mg/kg intraperitoneally twice a day)	Average blood pressure [5, 10]	Systolic pressure at right ventricle [5, 10]	Weight of right ventricle [5, 10]	IC50 ([6]; read-out: Human cymase IC50 value, human chymase from silkworms infected with baculovirus, 120 minutes at 37° C.)	average adhesion score [8]	average adhesion score [9]
> 1000 nM	> 1000 nM					COC(=O)c1ccc(NS(=O)(=O)c2sc3ccc(Cl)cc3c2C)c(OC)c1 [Compound 7, Methyl 4-(5-chloro-3-methylbenzo[b]thiophene-2-sulfonylamino)-3-methoxybenzoate]	33.3%										
> 10000 nM	> 10000 nM	2 nM	100%	207 to 208 °C	37 nM	Cc1c(S(=O)(=O)Nc2ccc(-c3nc(C(=O)O)co3)cc2S(C)(=O)=O)sc2ccc(F)cc12 [Compound 24, 2-[4-(5-fluoro-3-methylbenzo[b]thiophene-2-sulfonylamino)-3-methanesulfonylphenyl]oxazole-4-carboxylic acid]	41.7%									0.9	
> 10000 nM	> 10000 nM	0.4 nM			7 nM	Cc1c(S(=O)(=O)Nc2ccc(-c3nc(C(=O)O)cs3)cc2S(C)(=O)=O)sc2ccc(F)cc12 [Compound 70, 2-[4-(5-fluoro-3-methylbenzo[b]thiophene-2-sulfonylamino)-3-methanesulfonylphenyl]thiazole-4-carboxylic Acid]											2.67

SMILES	IC50 [1]	IC50 [2]	IC50 [4, 11]	Residual ratio in rat plasma [7]	melting point	IC50 [6]	total percentage of scores 3 and 4 showing severe adhesions [3]	IC50 [4]	Medial thickening ratio ([5]; (medial thickness/outer diameter of the blood vessel)×100, pulmonary artery 50 to 150 μm, 50 mg/kg intraperitoneally twice a day)	thickening of medial muscular layer (increase of medial thickening ratio) ([5]; monocrotaline-induced pulmonary hypertension, result in words)	Weight ratio of right ventricle/(left ventricle + septum) ([5]; monocrotaline-treated SD male rats, 50 mg/kg intraperitoneally twice a day)	Average blood pressure [5, 10]	Systolic pressure at right ventricle [5, 10]	Weight of right ventricle [5, 10]	IC50 ([6]; read-out: Human cymase IC50 value, human chymase from silkworms infected with baculovirus, 120 minutes at 37° C.)	average adhesion score [8]	average adhesion score [9]
COC(=O)c1ccc(NS(=O)(=O)c2sc3ccc(F)cc3c2C)c(S(C)(=O)=O)c1 [Compound 17, methyl 4-(5-fluoro-3-methylbenzo[b]thiophene-2-sulfonylamino)-3-methanesulfonylbenzoate]	> 10000 nM	> 10000 nM						9 nM	10.55 ± 1.80	suppressed	0.39 ± 0.04	111 ± 19 mmHg	57 ± 11	233 ± 24 mg	56 nM		
